# From US11376271B1, “Methods of ameliorating the effects of alcoholic liver damage” (FULGENT LIFE INC., priority 2021, dated 2022)
# Experiments:
# [1] = system: male C57BL/6J mice; test: Blood ethanol and acetaldehyde levels after ethanol administration
# [2] = system: male C57BL/6J mice; test: Tissue NAD+ content after intraperitoneal injection; type: in vivo; conditions: 4 hours
# Method: In the below in vivo assays, C57BL/6J male mice (The Jackson Laboratory) (40 days of age) were used. They were kept under standard laboratory conditions with a temperature of 22±1° C., dark/light cycles of 12/12 h, and relative humidity of 55±5%. All animals had free access to food and water, except for indicated fasting periods (and where not indicated for fasting periods of 2 hours before administration).
# […] Specifically, ten 8-week-old male C57BL/6J mice (The Jackson Laboratory) were kept in polycarbonate cages under a 12-h light/dark cycle with free access to food and water. […] Four hours later, the blood samples were collected by cardiac puncture and the mice were executed. Liver, brain, muscle, and adipose tissues were collected, instantly frozen in liquid nitrogen, and then stored at −80° C. until performance of the NAD+ analyses. […] Four hours later, the mice were killed and tissue samples were collected. All animal studies were performed according to the Guidelines for the Care and Use of Experimental Animals. For this NAD+ assay, about 100 mg of frozen tissue was crushed in liquid nitrogen and ultrasonically homogenized in 7% perchloric acid, and then the solution was neutralized and subjected to the NAD+ determination described here.
# Data are indicated as mean±SD.
# [3] = system: C2C12, Neuro2a and AML12 cells; test: Toxicity: total cell number / trypan blue count after 24 h; type: cell-based; conditions: 1 mM
# Method: The sharp increase of NAD+ concentration indicates a possible toxicity to cells. To assess this toxicity, C2C12, Neuro2a and AML12 cells were treated with 1 mM NADH for 24 hours, and then the total cell numbers were measured. […] The cells were stained with trypan blue and then counted with a hemocytometer. […] The Annexin V/PI staining kit and Caspases3/7/SYTOX dead cell staining kit (Life Technologies) were used and cells were counted with a BD FACSCelesta™ flow cytometer. The quadrants of apoptotic cells, necrotic cells and living cells were identified and quantified according to the manufacturer's instructions.
# To examine apoptotic markers, AML12 cells were stained for Annexin V and Caspase 3/7, and cells were counted with a flow cytometer. […] Quadrants with live cells (brown), necrotic cells (gray) and apoptotic cells (blue) were quantified.
# [4] = system: male C57BL/6J mice; test: Loss of righting reflex (LORR) test; type: in vivo; conditions: 500 mg/kg intragastric 15 min prior to 8 ml/kg ethanol
# Source text: Alcohol acts on the central nervous system, causing various behavioral and/or cognitive problems, e.g., loss of righting reflex (LORR). […] LORR is defined as the phenomenon that mice cannot correct themselves three times within 30 seconds after alcohol intake. LORR latency is defined as the time from drinking to occurrence of LORR, and LORR duration is defined as the time from occurrence to recovery of LORR.
# Fisher's exact probability test was used to analyze the loss of righting reflex (LORR) in the mice. […] The data representing LORR latency and duration are expressed as mean±SD (n=10); *p<0.05 vs alcohol group.
# [5] = system: male C57BL/6J mice; test: Liver NAD+/NADH ratio after ethanol administration; type: in vivo; conditions: 500 mg/kg intragastric 15 min before 8 ml/kg ethanol (40% w/v)
# Method: The ratio of NAD^+/NADH in the liver was then measured at different times after ethanol administration. The NAD^+/NADH ratios were detected using a NAD+/NADH Quantification Colorimetric Kit (ABIN411692) in compliance with the manufacturer's instructions. Fresh tissue lysate was prepared from snap cryo-frozen liver samples stored in […], and 20 mg liver was homogenized with NAD^+/NADH extraction buffer (400 μL). In order to quickly remove enzymes that may consume NADH, the samples were filtered through a 10 kD molecular weight cut-off filter before detection. […] Concentrations were calculated using an NADH standard curve.
# [6] = system: hepatocyte AML12 cells; test: NADH dose-response and time course of NAD+ levels in AML12 cells; type: cell-based
# Method: Also, cells were cultured as follows.
# A dose-response curve was also determined for hepatocyte AML12 cells. These cells were treated with rising concentrations of NADH for 3 h. […] (n=3). *, p<0.01; **, p<0.001 vs Control.
# Time course studies for NADH action were also carried out. AML12 cells were incubated with NADH for various incubation times (0-12 hr) and then harvested, and the NAD+ levels were assessed. […] (n=3). *, p<0.01; **, p<0.001 vs Control.
# [7] = system: AML12 cells; test: NAD+/NADH ratio in AML12 cells; conditions: 1 mM, 6 h, vs control
# [8] = system: AML12 cells; test: Apoptosis markers Annexin V and Caspase 3/7 by flow cytometry; type: cell-based; conditions: 1 mM, 24 hours
# Source text: To examine apoptotic markers, AML12 cells were stained for Annexin V and Caspase 3/7, and cells were counted with a flow cytometer. […] Data are expressed as mean±SD, n=3. Quadrants with live cells (brown), necrotic cells (gray) and apoptotic cells (blue) were quantified.
# [9] = system: male C57BL/6J mice; test: Plasma AST and ALT in acute alcohol-induced hepatotoxicity; type: in vivo
# Method: Liver marker enzymes in plasma, such as aspartate transaminase (AST) and alanine aminotransferase (ALT), are known as sensitive biochemical markers of early liver damage. […] Six hours after treatment with alcohol, blood samples were taken to detect biochemical indexes. […] The control group was given the same amount of normal saline in place of the ethanol. […] The plasma levels of AST and ALT were determined by collecting blood samples in an anti-coagulant test tube and centrifuging at 1500 rpm for 10 minutes to attain plasma. The plasma AST and ALT activity was determined with a commercial kit (from Sigma-Aldrich) based on the manufacturer's instructions.
# [10] = 500 mg/kg intragastric 15 min before 8 ml/kg ethanol (40% w/v)
# [11] = 500 mg/kg intragastric 30 min prior to 8 ml/kg ethanol (40% w/v), blood 6 h after alcohol
# [12] = 40% ethanol every 24 h for 3 days, then 500 mg/kg every day for three days
compound,measurement,setting,value
"NC(=O)C1=CN([C@@H]2O[C@H](COP(=O)(O)OP(=O)(O)OC[C@H]3O[C@@H](n4cnc5c(N)ncnc54)C(O)C3O)C(O)C2O)C=CC1 (some centres unmarked) [NADH, nicotinamide adenine dinucleotide (NAD)+hydrogen (H)]",acetaldehyde in the blood two hours after alcohol administration,[1]; [10],significantly reduced
same,blood acetaldehyde levels within two hours after ethanol administration,[1]; [10],significantly increased
same,ethanol in the blood,"[1]; 500 mg/kg oral 15 min before 8 ml/kg ethanol (40% w/v), 30 minutes after ethanol",significantly reduced
same,increase of the concentration of NAD+ in the liver,[2]; 250 mg/kg intraperitoneal,680%
same,NAD+-promoting effect in skeletal muscle,[2]; 1000 mg/kg intraperitoneal,lowest
same,"content of NAD+ in blood, brain and fat",[2]; 1000 mg/kg intraperitoneal,increased several times
same,increase of NAD+ content in liver,[2]; 1000 mg/kg intraperitoneal,more than 7 times
same,Trypan blue positive cells,[3],less than 5%
same,loss of cultured cells (total cell number),[3],no obvious loss
same,LORR duration relative to the model group,[4],one third
same,LORR duration vs model group,[4],decrease
same,LORR latency vs model group,[4],prolonged
same,average LORR latency relative to the model group,[4],4 times
same,share of mice that had a righting reflex after drinking alcohol,[4],less than half
same,LORR rate vs model group,[4]; model group 100%,decrease
same,average LORR latency,[4]; model group 14.76 minutes,60.24 min
same,LORR duration,[4]; model group about 798.68 minutes,265.00 min
same,ethanol-induced decrease of liver NAD+/NADH redox ratio,[5],significantly inhibited this decrease
same,concentration of NAD+ relative to the control group,"[6]; 50 μM NADH, 3 h",approximately 4 times
same,concentration of NAD+ relative to the untreated control group (saturation),"[6]; 500 μM NADH, 3 h",10 times
same,time after which full NAD+ increasing effects were present,[6]; 1 mM NADH,3 h
same,time at which NAD+ concentration-increasing effects appeared,[6]; 1 mM NADH,0.5 h
same,NAD+ after 12 hours of treatment,"[6]; 1 mM NADH, 12 h",remained at a high concentration
same,NAD+/NADH ratio,[7],significantly increase
same,Annexin V or caspase 3/7 apoptosis markers vs control,[8],no significant changes
same,"plasma ALT level, pre-treatment",[9]; [11],significantly reduce
same,"plasma AST level, pre-treatment",[9]; [11],significantly reduce
same,"plasma ALT level, treatment after alcohol exposure",[9]; [12],significantly reduce
same,"plasma AST level, treatment after alcohol exposure",[9]; [12],significantly reduce
